Experimental data from PMC9405216, “Antimicrobial and Cytotoxic Cyathane-Xylosides from Cultures of the Basidiomycete Dentipellis fragilis” (Antibiotics, 2022).
In brackets after ≈: the same amount, converted by molar mass.

Tests used:
Type in all cases: cell-based
[1] = system: PC-3 (ACC465) human prostate adenocarcinoma; assay: MTT cytotoxicity test, PC-3; conditions: 120 h, PC-3 human prostate adenocarcinoma, five days incubation
Description: (§1) A panel of mammalian cell lines was used to determine the cytotoxicity of the compounds following a previously published protocol. The assay was initially performed using the sensitive cell lines KB3.1 (human endocervical adenocarcinoma) and L929 (mouse fibroblasts). Active compounds were further tested using the cell lines MCF-7 (human breast adenocarcinoma), PC-3 (human prostate adenocarcinoma), SKOV-3 (ovarian carcinoma), A549 (human lung carcinoma), and A431 (human squamous cell carcinomas) (Table 6). The cell lines A549, KB 3.1, and L929 were cultured in DMEM (Gibco, provided by Thermo Fisher Scientific), PC-3 in F12-K (Gibco) and MC-7, and SKOV-3 and A431 in RPMI (Gibco). With the exception of A549, all cell lines were supplemented with 10% bovine serum (Gibco). All cell lines were cultured at 37 °C. The L929 and KB 3.1 cell lines were cultivated under an atmosphere of 10% (v/v) carbon dioxide. Cytotoxicity tests were then carried out using MTT (3-(4,5-dimethylthiazol-2-yl)-2,5-diphenyltetrazolium bromide) in 96-well microtiter plates. Serial dilutions of the compounds (60 µL aliquots, each with an initial concentration of 1 mg/mL) were added into 120 µL aliquots of cell suspension (50000 cells/mL) in the 96-well plates. These were incubated for five days, after which an MTT assay was performed. The absorbance was taken at 590 nm using an Elisa plate reader (Victor, Überlingen, Germany). The half-maximal inhibitory concentration (IC50), the concentration at which cell growth inhibition was 50% of the control, was calculated as described elsewhere.

[2] = system: Escherichia coli (DSM 1116); assay: Serial dilution MIC assay, Escherichia coli; conditions: DSM1116, serial dilution 67-0.5 µg/mL, overnight incubation, n.i. = no inhibition, read-out: MIC
Experimental: (§2) Serial dilution assays in 96-well microtiter plates were performed according to our standard protocol in order to determine the minimum inhibitory concentrations (MICs) of pure isolated compounds against different microorganisms. Essentially, aliquots of compounds 1–5 and 9 (20 µL), each with an initial concentration of 1 mg/mL, were diluted in MeOH together with the respective microorganisms to concentrations ranging between 67 µg/mL and 0.5 µg/mL in the 96-well plates, followed by overnight incubation. The MIC was then determined as the lowest concentration at which no growth of the test organism was observed. A broad spectrum of clinically approved test pathogens and sensitivity indicator strains were used in the assays (Table 4 and Table 5). Ciprofloxacin, oxytetracycline, kanamycin, and gentamycin were used as positive controls against bacterial pathogens, while nystatin was used as the positive control against fungi.

[3] = system: KB3.1 (ACC158) human endocervical adenocarcinoma; assay: MTT cytotoxicity test, KB3.1; conditions: KB 3-1, 120 h, KB3.1 human endocervical adenocarcinoma, five days incubation, n.c. = no cytotoxicity, read-out: IC50
Description: as §1

[4] = system: Rhodotorula glutinis (DSM 10134); assay: Serial dilution MIC assay, Rhodotorula glutinis; conditions: DSM10134, serial dilution 67-0.5 µg/mL, overnight incubation, n.i. = no inhibition, read-out: MIC
Experimental: as §2

[5] = system: tested microorganisms (bacteria and fungi); assay: Serial dilution MIC assays, whole panel of tested strains; conditions: range over most tested bacterial and fungal strains; read-out: minimum inhibitory concentrations (MICs) against most tested strains
Experimental: as §2

[6] = system: Candida albicans (DSM 1665); assay: Serial dilution MIC assay, Candida albicans; conditions: DSM1665, serial dilution 67-0.5 µg/mL, overnight incubation, n.i. = no inhibition, read-out: MIC
Experimental: as §2

[7] = system: Mucor hiemalis (DSM 2656); assay: Serial dilution MIC assay, Mucor hiemalis; conditions: DSM2656, serial dilution 67-0.5 µg/mL, overnight incubation, n.i. = no inhibition, read-out: MIC
Experimental: as §2

[8] = system: A431 (ACC91) human squamous cell carcinomas; assay: MTT cytotoxicity test, A431; conditions: A-431, 120 h, five days incubation
Description: as §1

[9] = system: other cell lines (MCF-7, A549, PC-3, SKOV-3, A431); assay: MTT cytotoxicity test, other cell lines of the panel; conditions: range over the cell lines other than L929 and KB3.1 (Table 6)
Description: as §1, with “These were incubated for five days, after which an MTT assay was performed.” left out, “The half-maximal inhibitory concentration (IC50), the concentration at which cell growth inhibition was 50% of the control, was calculated as described elsewhere.” left out

[10] = system: L929 (ACC2) mouse fibroblasts; assay: MTT cytotoxicity test, L929; conditions: 120 h, five days incubation, n.c. = no cytotoxicity, read-out: IC50
Description: as §1

[11] = system: A549 (ACC107) human lung carcinoma; assay: MTT cytotoxicity test, A549; conditions: Homo sapiens, 120 h, five days incubation
Description: as §1

[12] = system: Chromobacterium violaceum (DSM 30191); assay: Serial dilution MIC assay, Chromobacterium violaceum; conditions: DSM30191, serial dilution 67-0.5 µg/mL, overnight incubation, n.i. = no inhibition, read-out: MIC
Experimental: as §2

[13] = system: Staphylococcus aureus (DSM 346); assay: Serial dilution MIC assay, Staphylococcus aureus; conditions: DSM346, serial dilution 67-0.5 µg/mL, overnight incubation, n.i. = no inhibition, read-out: MIC
Experimental: as §2

[14] = system: Mycolicibacterium smegmatis (ATCC 700084); assay: Serial dilution MIC assay, Mycolicibacterium smegmatis; conditions: ATCC700084, serial dilution 67-0.5 µg/mL, overnight incubation, n.i. = no inhibition, read-out: MIC
Experimental: as §2

[15] = system: MCF-7 (A115) human breast adenocarcinoma; assay: MTT cytotoxicity test, MCF-7; conditions: MCF7, 120 h, MCF-7 human breast adenocarcinoma, five days incubation
Description: as §1

[16] = system: Actinobacter baumannii (DSM 30008); assay: Serial dilution MIC assay, Actinobacter baumannii; conditions: serial dilution 67-0.5 µg/mL, overnight incubation, n.i. = no inhibition, read-out: MIC
Experimental: as §2

[17] = system: Bacillus subtilis (DSM 10); assay: Serial dilution MIC assay, Bacillus subtilis; conditions: DSM10, serial dilution 67-0.5 µg/mL, overnight incubation, n.i. = no inhibition, read-out: MIC
Experimental: as §2

[18] = system: Schizosaccharomyces pombe (DSM 70572); assay: Serial dilution MIC assay, Schizosaccharomyces pombe; conditions: DSM70572, serial dilution 67-0.5 µg/mL, overnight incubation, n.i. = no inhibition, read-out: MIC
Experimental: as §2

[19] = system: Pichia anomala (DSM 6766); assay: Serial dilution MIC assay, Pichia anomala; conditions: Hansenula anomala, DSM6766, serial dilution 67-0.5 µg/mL, overnight incubation, n.i. = no inhibition, read-out: MIC
Experimental: as §2

[20] = system: Pseudomonas aeruginosa (DSM PA14); assay: Serial dilution MIC assay, Pseudomonas aeruginosa; conditions: serial dilution 67-0.5 µg/mL, overnight incubation, n.i. = no inhibition
Experimental: as §2

[21] = system: SKOV-3 (ovarian carcinoma); assay: MTT cytotoxicity test, SKOV-3; conditions: Homo sapiens, SK-OV-3, 120 h, five days incubation
Description: as §1

Question: `CC(C)C1=C2[C@H]3CC=C(C=O)[C@@H]4[C@H](O[C@@H]5OC[C@@H](O)C(=O)[C@@]54O)[C@]3(C)CC[C@@]2(C)CC1` [Compound 9, striatal D] was tested. Which IC50 [1] did it give?
Answer: Its IC50 is 0.4 µM.

Question: And the MIC [2]?
Answer: Its MIC is 66.6 µg/mL (≈ 155 µM).

Question: And the IC50 [3]?
Answer: The IC50 was 0.4 µM.

Question: What about the MIC [4] of the same molecule?
Answer: The MIC was 1 µg/mL (≈ 2.32 µM).

Question: What about the MIC [5] of the same molecule?
Answer: Its MIC is 1 to 66.6 µg/mL (≈ 2.32 to 155 µM).

Question: What about the MIC [6] of the same molecule?
Answer: The MIC was 33.3 µg/mL (≈ 77.3 µM).

Question: What about the MIC [7] of the same molecule?
Answer: The MIC was 2.1 µg/mL (≈ 4.88 µM).

Question: What about the IC50 [8] of the same molecule?
Answer: Its IC50 is 1 µM.

Question: And the IC50 [9]?
Answer: The IC50 was 0.1 to 1 µM.

Question: And the IC50 [10]?
Answer: Its IC50 is 0.8 µM.

Question: What about the IC50 [11] of the same molecule?
Answer: Its IC50 is 0.1 µM.

Question: And the MIC [12]?
Answer: Its MIC is 16.6 µg/mL (≈ 38.6 µM).

Question: And the MIC [13]?
Answer: Its MIC is 2.1 µg/mL (≈ 4.88 µM).

Question: And the MIC [14]?
Answer: The MIC was 33.3 µg/mL (≈ 77.3 µM).

Question: And the IC50 [15]?
Answer: Its IC50 is 0.1 µM.

Question: And the MIC [16]?
Answer: The MIC was 66.6 µg/mL (≈ 155 µM).

Question: What about the MIC [17] of the same molecule?
Answer: The MIC was 1 µg/mL (≈ 2.32 µM).

Question: And the MIC [18]?
Answer: Its MIC is 4.2 µg/mL (≈ 9.76 µM).

Question: And the MIC [19]?
Answer: The MIC was 33.3 µg/mL (≈ 77.3 µM).

Question: What about the MIC [20] of the same molecule?
Answer: Its MIC is “n.i”.

Question: And the IC50 [21]?
Answer: The IC50 was 0.1 µM.
